Calls of active or inactive are those of the source.
Key:
Assay type in all cases: functional, cell-based
MRC5 [1] = test: Compound was tested for antiviral activity against HSV-1 (SC16 strain)at a concentration of 100 ug/mL in MRC-5 (human fibroblast) cells; IA denotes inactive
MRC5 [2] = test: Compound was tested for antiviral activity against HSV-2 (MS) strain at a concentration of 100 ug/mL in MRC-5 (human fibroblast) cells; IA denotes inactive
MRC5 [3] = test: Compound was tested for antiviral activity against CMV (cytomegalovirus) (AD169) at a concentration of 100 ug/mL in MRC-5 (human fibroblast) cells; IA denotes inactive
MRC5 [4] = test: Compound was tested for antiviral activity against VZV (Ellen) strain at a concentration of 100 ug/mL in MRC-5 (human fibroblast) cells; IA denotes inactive

Measured: Antiviral activity

Nc1nc(O)c2ncn(C3CC3(CO)CO)c2n1 (centres undefined)
inactive: all assays above

Reference: ChEMBL document CHEMBL1125994, “Synthesis of 9-[2,2-bis(hydroxymethyl)cycloprop-1-yl]guanine as a potential antiviral agent” (Bioorg Med Chem Lett, 1991)
